Converted amounts (≈) assume the structure as drawn. Like-named read-outs stand apart in the source and are kept apart here.
Tests used:
[1] = in vivo
Excerpt: (§1) A randomized, double-blind, placebo controlled trial was designed to evaluate the safety/tolerability, phamacokinetics and antiviral activity of single (in Part A) and multiple (in Part B) doses of Compound (1) (oleic acid solution, above) in subjects chronically infected with HCV genotype 1 (GT-1) without decompensated cirrhosis.
(§2) In completed Part A, five successive cohorts of 6 subjects were randomized (5:1) to receive single ascending doses of Compound 1 (40, 120, 240, 240-with food, or 480 mg) or placebo. In ongoing Part B, four successive cohorts of 12 subjects are randomized (10:2) to receive multiple ascending doses of Compound 1 (40 mg BID, 120 mg BID, 240 mg QD, 240 mg BID) or placebo, over 8 days.

in vitro [2] = conditions: human
Experimental: (§3) Compound (1) was evaluated for its cytotoxicity in a variety of cell types including HCV replicon-containing cell lines (Huh-7, SL3 and MH4) and non-replicon-containing cell lines (HepG2, MT4), using a CellTiter-Glo Luminescence Cell Viability assay (Promega).

[3] = Cytotoxicity, CellTiter-Glo Luminescence Cell Viability assay, Huh-7 lucneo; conditions: human, Huh-7 lucneo cells (HCV replicon-containing)
Experimental: as §3

HCV replicon = experiment: Anti-HCV replicon activity compared with prior art compound of formula (4); format: cell-based, hepatitis C virus
Excerpt: The anti-HCV replicon activity of compound (1) was compared to that of a prior art (WO 05/063744) compound, the compound of formula (4)

pKa = format: physicochemical; conditions: product of example 1b
[4] = Cytotoxicity, CellTiter-Glo Luminescence Cell Viability assay, MH4; conditions: mouse, MH4 cells (HCV replicon-containing)
Experimental: as §3

[5] = test system: HCV genotype 1b (Con-1/lucneo) replicon; experiment: microbe, parasite or virus in culture; format: cell-based; conditions: Hepatitis C virus
Experimental: (§4) HCV genotype 1b (Con-1/lucneo) and 1a (H77/neo) replicon cells were incubated with serial dilutions of compound (1) 2′C-methyl adenosine (2′CMeA) or IFNα for 3 days in the absence or presence of 40 mg/mL human serum albumin (HSA).

HCV replicon cells = experiment: In vitro combination study with IFN-α in replicon cells (MacSynergy); format: cell-based, hepatitis C virus; conditions: MacSynergy analysis
Experimental: Pegylated interteron-α (PEG-IFN-α), in combination with ribavirin, represents the current standard of care for HCV-infected patients. In vitro combination studies of compound (1) and IFN-α were performed in replicon cells. Data was analyzed using the MacSynergy template developed by Prichard and Shipman.

[6] = test system: HCV 2a subgenomic replicon; experiment: HCV genotype 2a subgenomic replicon in Huh-7 cells, NS3 protease activity by time-resolved fluorescence; format: cell-based, hepatitis C virus; conditions: compared with genotypes 1a and 1b
Experimental: (§5) The antiviral activity of compound (1) against HCV genotype 2a was tested in cells chronically infected with the genotype 2a virus as well as in cells replicating a subgenomic 2a replicon. Huh-7 cells containing chronically replicating HCV genotype 2a (J6/JFH-Rluc) virus or subgenomic replicons were cultured with compound (1) or 2′CMeA for 3 days in the absence of human serum albumin. After cultivation, the amount of luciferase in 2a-virus containing cells and HCV NS3 protease activity in the 2a replicon-containing cells was determined using Promega's luciferase assay and a novel time-resolved fluorescence assay, respectively.

[7] = Intrinsic and pH solubility profile; format: physicochemical
[8] = test system: HCV genotype 2a (J6/JFH-Rluc) virus; experiment: Huh-7 cells chronically infected with HCV genotype 2a reporter virus, luciferase assay; format: cell-based; conditions: Hepatitis C virus, Huh-7, 72 h, read-out: EC50, HCV-2a chronically infected cell culture model
Experimental: as §5

[9] = Cytotoxicity, CellTiter-Glo Luminescence Cell Viability assay, SL3; conditions: human, SL3 cells (HCV replicon-containing)
Experimental: as §3

physchem = format: physicochemical; conditions: pH 6.4, fassif
[10] = test system: HCV genotype 1a (H77/neo) replicon; experiment: HCV genotype 1a (H77/neo) replicon, quantitative real-time PCR assay; format: cell-based; conditions: Hepatitis C virus, 72 h, 3 days
Experimental: as §4

log P = format: physicochemical; conditions: product of example 1b
in vitro [11] = conditions: human; remark: listed apart in the source
Experimental: as §3

[12] = Phase-1 first-in-human trial, pharmacokinetics; conditions: in vivo
Excerpt: as §1, §2

With `Fc1ccccc1-c1nc2ccn(Cc3ccc(-c4ccc(C(F)(F)F)cc4C(F)(F)F)nn3)cc-2n1` [Compound (1), 5-({6-[2,4-bis(trifluoromethyl)phenyl]pyridazin-3-yl}methyl)-2-(2-fluorophenyl)-5H-imidazo[4,5-c]pyridine] the “Grade 3 or 4 treatment emergent laboratory abnormalities” value ([1]; human) was “no Grade 3 or 4 treatment emergent laboratory abnormalities”, the “most common adverse event” value [1] was “headache” and the “serious or treatment-limiting adverse events” value [1] was “no serious or treatment-limiting adverse events”. The “severity of adverse events” value [1] was “All AEs were mild in severity, with the exception of one moderate headache”, the “tolerability of single doses” value [1] was “well tolerated” and the CC50 (in vitro [2]) was over 50000 nM. The CC50 [3] was over 50000 nM, the “potency relative to the compound of formula (4)” value (HCV replicon) was “about 330 times” and the pKa (pKa) was 5.8. For the same molecule, the CC50 [4] was over 50000 nM, the EC50 ([5]; 72 h, read-out: EC50 HCV 1b-lucneo 40 mg/mL HSA, 3 days, presence of 40 mg/mL human serum albumin) was 11 nM and the EC50 ([5]; 72 h, 3 days, absence of human serum albumin, read-out: EC50 HCV 1b-lucneo (subgenomic replicon)) was 0.6 nM. For the same molecule, the EC50 ([5]; Huh-7, read-out: EC50, Huh-7 cells replicating an HCV-1b subgenomic replicon) was 0.6 nM, the EC50 ([5]; read-out: EC50 in HCV-1b and HCV-1a replicons) was 0.62 to 3.6 nM and the “interaction with IFN-α in combination” value (HCV replicon cells) was “additive interaction”. The “activity against genotype 2a” value [6] was “substantially less active”, the “pH solubility profile at pH 7.3” value ([7]; geometric mean (3 lots), pH 7.3) was 0.7 micrograms/ml and the solubility ([7]; product of example 1b) was 0.7 µg/mL (≈ 1.35 µM). It also gave an EC50 [8] of 2900 nM, a CC50 [9] of over 50000 nM and a solubility (physchem) of 19.1 µg/mL (≈ 36.9 µM). It also gave an EC50 [10] of 3.6 nM, a logP (log P) of 2.8 and a CC50 (in vitro [11]) of over 50000 nM. The half-life [12] was 10 to 15 h and the “increase of systemic exposure with a high fat meal” value [12] was “approximately 2 fold”.
